Assay results reported in US20240262803A1, “COMPOUNDS, COMPOSITIONS AND METHODS OF TREATING DISORDERS” (Chungdu Anticancer Bioscience Ltd, priority 2021, published 2024).
“Also recorded” adds a separate entry of the source. Read-outs that look alike come from different tables or passages of the source.

Columns and labels:
RPEMYC^H2B-GFP cells [1] = experiment: Mechanism-informed phenotypic screening assay (mitotic arrest, polyploidy; GE IN-Cell Analyzer 2000); type: cell-based; settings: 20 nM to 20 μM, 24, 48 or 72 hours, read-out: Min. Effective conc. for polyploidy (≥5%)
Procedure, shortened: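 RPEMYC^H2B-GFP cells expressing Histone 2B-EGFP were treated with compounds at 20 nM to 20 μM. Mitotic arrest and DNA content were imaged at 24, 48 or 72 h. Minimal effective concentrations eliciting polyploidy are given as letter bins.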

[2] = tested on: cervical cancer cell line Hela; experiment: Minimal effective concentration that elicits polyploidy, Hela; type: cell-based; settings: Homo sapiens, read-out: MECP: Minimal effective concentration that elicits polyploidy
[3] = tested on: colon cancer cell line HCT116; experiment: MTT assay of cellular proliferation, HCT116; type: cell-based; settings: Homo sapiens, HCT-116, read-out: EC50: Concentration that inhibits 50% of proliferation
Procedure, shortened: (§1)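 MTT viability assay in DMEM with 5% FBS. Cells seeded to 20–30% confluence were exposed to compound from 1 nM to 10 μM, then MTT was added for 3–4 h and formazan was read at 570 nm. EC50 is the concentration giving 50% inhibition of proliferation.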

[4] = tested on: colon cancer cell line SW460; experiment: MTT assay of cellular proliferation, SW460; type: cell-based; settings: Homo sapiens, SW480; read-out: EC50: Concentration that inhibits 50% of proliferation
Procedure, shortened: as §1

[5] = tested on: human colon cancer cell line HCT116; experiment: Xenograft assay, HCT116; type: in vivo; settings: HCT116 subcutaneous xenograft, Nu/Nu mice, oral gavage twice a day for 9 days, FIG. 4
Procedure: (§2) Xenografts were initiated in immunocompromised (Nu/Nu) mice with the human lung adenocarcinoma cell line NCI-H23 (FIG. 3) and the human colon cancer cell line HCT116 (FIG. 4). Five million cells were injected subcutaneously into each mouse and treatment was initiated when the average tumor volumes reached 150 mm3 (n=5/groups). Tumor-bearing mice were randomized into different groups to receive either vehicle or indicated compounds. The compounds were administered through oral gavage twice a day for 9 days. Day 0 on the x-axis indicates the day that treatment was initiated. For these experiments, all compounds were first dissolved in DMSO and then diluted 1:10 into a mixture containing 50% PEG300 and 49% PBS, 1% Tween 80, pH2.2. 100 ul of drug solution was administered with each dose. Tumor volumes were determined once every three days and are calculated from digital caliper raw data by using the formula: Volume (mm3)=(L×W^2)/2. The value W (Width) is the smaller of two perpendicular tumor axes and the value L (Length) is the larger of two perpendicular axes. Mean tumor volume growth curves and means are calculated for each treatment group.

[6] = tested on: liver cancer cell line T2 HCC; experiment: MTT assay of cellular proliferation, T2 HCC; type: cell-based; settings: Mus musculus, read-out: EC50: Concentration that inhibits 50% of proliferation
Procedure, shortened: as §1

[7] = tested on: human lung adenocarcinoma cell line NCI-H23; experiment: Xenograft assay, NCI-H23; type: in vivo; settings: NCI-H23 subcutaneous xenograft, Nu/Nu mice, oral gavage twice a day for 9 days, FIG. 3
Procedure: as §2

[8] = tested on: lung cancer cell line A549; experiment: MTT assay of cellular proliferation, A549; type: cell-based; settings: Homo sapiens, read-out: EC50: Concentration that inhibits 50% of proliferation
Procedure, shortened: as §1

[9] = tested on: cervical cancer cell line Hela; experiment: MTT assay of cellular proliferation, Hela; type: cell-based; settings: Homo sapiens, read-out: EC50: Concentration that inhibits 50% of proliferation
Procedure, shortened: as §1

[10] = tested on: gastric cancer cell line NCI-N87; experiment: MTT assay of cellular proliferation, NCI-N87; type: cell-based; settings: Homo sapiens, read-out: EC50: Concentration that inhibits 50% of proliferation
Procedure, shortened: as §1

SW480 = experiment: Minimal effective concentration that elicits polyploidy, SW480; type: cell-based; settings: Homo sapiens, read-out: MECP: Minimal effective concentration that elicits polyploidy
[11] = tested on: breast cancer cell line MDA-MB-231; experiment: MTT assay of cellular proliferation, MDA-MB-231; type: cell-based; settings: Homo sapiens, read-out: EC50: Concentration that inhibits 50% of proliferation
Procedure, shortened: as §1

[12] = tested on: colon cancer cell line HCT116; experiment: Minimal effective concentration that elicits polyploidy, HCT116; type: cell-based; settings: Homo sapiens, HCT-116, read-out: MECP: Minimal effective concentration that elicits polyploidy
[13] = tested on: lung cancer cell line NCI-H23; experiment: MTT assay of cellular proliferation, NCI-H23; type: cell-based; settings: Homo sapiens, read-out: EC50: Concentration that inhibits 50% of proliferation
Procedure, shortened: as §1

[14] = tested on: gastric cancer cell line NCI-N87; experiment: Minimal effective concentration that elicits polyploidy, NCI-N87; type: cell-based; settings: Homo sapiens, read-out: MECP: Minimal effective concentration that elicits polyploidy
RPEMYC^H2B-GFP cells [15] = experiment: Mechanism-informed phenotypic screening assay (mitotic arrest, polyploidy; GE IN-Cell Analyzer 2000); type: cell-based; settings: 20 nM to 20 μM, 24, 48 or 72 hours, read-out: Mitotic Arrest (≥5%)
[16] = tested on: breast cancer cell line MDA-MB-231; experiment: Minimal effective concentration that elicits polyploidy, MDA-MB-231; type: cell-based; settings: Homo sapiens, read-out: MECP: Minimal effective concentration that elicits polyploidy
[17] = tested on: lung cancer cell line A549; experiment: Minimal effective concentration that elicits polyploidy, A549; type: cell-based; settings: Homo sapiens, read-out: MECP: Minimal effective concentration that elicits polyploidy
[18] = tested on: lung cancer cell line NCI-H23; experiment: Minimal effective concentration that elicits polyploidy, NCI-H23; type: cell-based; settings: Homo sapiens, read-out: MECP: Minimal effective concentration that elicits polyploidy
[19] = tested on: liver cancer cell line T2 HCC; experiment: Minimal effective concentration that elicits polyploidy, T2 HCC; type: cell-based; settings: Mus musculus, read-out: MECP: Minimal effective concentration that elicits polyploidy

EC50 [3] [µM] | EC50 [4] [µM] | EC50 [6] [µM] | EC50 [8] [µM] | EC50 [9] [µM] | EC50 [10] [µM] | EC50 [11] [µM] | EC50 [13] [µM] | SMILES | minimal effective concentration (RPEMYC^H2B-GFP cells [1]) [µM] | minimal effective concentration [2] [µM] | tumor growth (tumor volume) [5] | tumor growth (tumor volume) [7] | minimal effective concentration (SW480) [µM] | minimal effective concentration [12] [µM] | minimal effective concentration [14] [µM] | minimal effective concentration (RPEMYC^H2B-GFP cells [15]) [µM] | minimal effective concentration [16] [µM] | minimal effective concentration [17] [µM] | minimal effective concentration [18] [µM] | minimal effective concentration [19] [µM]
0.001 to 1 | 0.001 to 1 | 0.001 to 1 | 0.001 to 1 | 0.001 to 1 | 0.001 to 1 | 0.001 to 1 | 0.001 to 1 | CNC(=O)c1cc(Oc2ncccc2-c2ccnc(OC)c2)cc(OC(F)(F)F)c1 [Compound 29, 3-((2′-methoxy-[3,4′-bipyridin]-2-yl)oxy)-N-methyl-5-(trifluoromethoxy)benzamide] | 1 | 0.001 to 1 | suppress the growth; also recorded: suppressing the tumor growth | suppress the growth; also recorded: suppressing the tumor growth | 0.001 to 1 | 0.001 to 1 | 0.001 to 1 | 1 | 0.001 to 1 | 0.001 to 1 | 0.001 to 1 | 0.001 to 1
0.001 to 1 | 0.001 to 1 | 0.001 to 1 | 0.001 to 1 | 0.001 to 1 | 0.001 to 1 | 0.001 to 1 | 0.001 to 1 | COc1cc(OC)cc(Oc2ncccc2-c2ccnc(OC)c2)c1 [Compound 32, 2-(3,5-dimethoxyphenoxy)-2′-methoxy-3,4′-bipyridine] | 1 | 0.001 to 1 | suppressing the tumor growth | suppressing the tumor growth | 0.001 to 1 | 0.001 to 1 | 0.001 to 1 | 1 | 0.001 to 1 | 0.001 to 1 | 0.001 to 1 | 0.001 to 1
